# Like-named read-outs stand apart in the source and are kept apart here.
# Key:
# [1] = Pharmacokinetic study in rats after oral administration of raw/honey-roasting licorice water decoction (UPLC-MS/MS of plasma); format: in vivo, Wistar rats; details: for Tmax / AUC(0-t) / Cmax / AUC0-24h: rat plasma, 2.7 g (crude drug)/kg, n = 5; for AUC(0-t): read-out: AUC0-24h
# Experimental: Healthy male Wistar rats (weighing 200 ± 20 g) were obtained from the Laboratory Animal Centre of Shanghai Jiao Tong University (Shanghai, China). […] All protocols and procedures were approved by the Shanghai Jiao Tong University Animal Care and Use Committee.
# Chromatographic separation was performed on a ZORBAX Eclipse Plus C18 column (50 mm × 2.1 mm, 1.8 µm). […] The flow rate was set at 0.4 mL/min. The column temperature and injection volume were set at 40°C and 2.0 µL, respectively. An MS system operating in negative electrospray ionization mode was employed in this study. […] The DP for each compound and IS were -120, -100, -100, -100, -100, -80, and -100 V, respectively. The collision energy for each compound and IS were -58, -32, -42, -32, -32, -65, and -20 V, respectively. The ion spray needle voltage was set at -4500 V, and the source temperature was 500°C. Following optimization of the setting parameters, the ESI source was operated with the GS1, GS2, and CUR (Nitrogen) set at 35, 35, and 40 psi, respectively.
# Fifty microliters of the plasma samples (or standard plasma samples and QC samples) were spiked with 5 µL of IS solution (10.00 µg/mL) and 200 µL of acetonitrile. The mixture was vortexed for 30 s and centrifuged at 14,000 rpm for 15 min at 4°C. The supernatant was collected and evaporated in a 37°C water bath under a nitrogen stream. The residue was redissolved with 500 µL of 70% acetonitrile.
# After being housed in a controlled environment for a week, rats were randomly divided into three groups (n = 5 for each group) and were then orally administered a raw, 25% honey-roasting, or 50% honey-roasting licorice water decoction at a dosage of 2.7 g (crude drug)/kg. Blood samples of 0.15 mL were taken from the suborbital vein into heparinized tubes at 0.17, 0.5, 1, 1.5, 2, 2.5, 3, 4, 6, 8, 12, and 24 h after oral administration of the licorice water decoction. The blood samples were immediately centrifuged at 10,000 rpm for 15 min. The separated plasma samples were frozen at -80°C before analysis.
# The pharmacokinetic parameters of the six compounds were calculated by […] 4.4.1 (Thermo Electron Corporation, Philadelphia, PA, USA) software. […] Data were presented as the mean ± SD. Statistical analyses of all the data obtained were evaluated using one-way ANOVA (SPSS 17.0).
# [2] = Stability of six compounds in rat plasma (QC samples); format: in vitro ADME; details: n = 6
# Experimental: The stabilities of the six compounds in rat plasma were evaluated by analyzing QC samples under different conditions. […] Long-term stability was tested by storing QC samples at -80°C for one month. RSD was evaluated by analyzing six replicate samples. The stability of the six compounds was evaluated under various conditions.
# [3] = design: method as in PMID 8197226, PMID 1432618; details: cited from earlier work
# [4] = 25% honey-roasting group vs raw group, rat, oral
# [5] = male, Wistar, rat, in vivo, po, oral 50% honey-roasting licorice water decoction
# [6] = At 4°C for 24 h, postpreparative QC sample in autosampler, high concentration level
# [7] = At 4°C for 24 h, postpreparative QC sample in autosampler, low concentration level
# [8] = At 4°C for 24 h, postpreparative QC sample in autosampler, medium concentration level
# [9] = At -80°C for 1 month, rat plasma QC sample, high concentration level
# [10] = At -80°C for 1 month, rat plasma QC sample, low concentration level
# [11] = At -80°C for 1 month, rat plasma QC sample, medium concentration level
# [12] = male, Wistar, rat, plasma, po, oral 25% honey-roasting licorice water decoction
# [13] = male, Wistar, rat, plasma, po, oral 25% honey-roasting licorice water decoction, read-out: Cmax
# [14] = male, Wistar, rat, plasma, po, oral 25% honey-roasting licorice water decoction, read-out: Tmax
# [15] = male, Wistar, rat, plasma, po, oral 50% honey-roasting licorice water decoction
# [16] = male, Wistar, rat, plasma, po, oral 50% honey-roasting licorice water decoction, read-out: Cmax
# [17] = male, Wistar, rat, plasma, po, oral 50% honey-roasting licorice water decoction, read-out: Tmax
# [18] = male, Wistar, rat, plasma, po, oral raw licorice water decoction
# [19] = male, Wistar, rat, plasma, po, oral raw licorice water decoction, read-out: Cmax
# [20] = oral 25% honey-roasting licorice water decoction
# [21] = oral 50% honey-roasting licorice water decoction
# [22] = oral raw licorice water decoction
Compound,"AUC(0-t) [1, 5] [ng·h/mL]","Stability, Average [2, 6] [%]","Stability, Average [2, 7] [%]","Stability, Average [2, 8] [%]","Stability, Average [2, 9] [%]","Stability, Average [2, 10] [%]","Stability, Average [2, 11] [%]","AUC(0-t) [1, 12] [ng·h/mL]","Cmax [1, 13] [ng/mL]","Tmax [1, 14] [h]","AUC(0-t) [1, 15] [ng·h/mL]","Cmax [1, 16] [ng/mL]","Tmax [1, 17] [h]","AUC(0-t) [1, 18] [ng·h/mL]","Cmax [1, 19] [ng/mL]","Tmax [1, 22] [h]",further results
"O=C(/C=C/c1ccc(O[C@@H]2O[C@H](CO)[C@@H](O)[C@H](O)[C@H]2O)cc1)c1ccc(O)cc1O [ILQ, isoliquiritin]",246 ± 7.67,95.7,90.2,89.3,100.1,89.4,94.2,,,,,,,,,,"Cmax lower than in the raw group [1, 4]: 48.07%; Tmax longer than in the raw group [1, 4]: 1.75 times; Tmax ([1]; male, Wistar, in vivo, oral 25% honey-roasting licorice water decoction, read-out: Tmax): 0.7 h; AUC(0-t) ([1]; male, Wistar, rat, in vivo, po, oral 25% honey-roasting licorice water decoction): 260 ± 8.53 ng·h/mL; Cmax ([1]; male, Wistar, rat, in vivo, po, oral 25% honey-roasting licorice water decoction, read-out: Cmax): 24.8 ± 3.63 ng/mL; Cmax ([1]; male, Wistar, rat, in vivo, po, oral 50% honey-roasting licorice water decoction, read-out: Cmax): 20.6 ± 5.82 ng/mL; AUC(0-t) ([1]; male, Wistar, rat, in vivo, po, oral raw licorice water decoction): 257 ± 19.3 ng·h/mL; Cmax ([1]; male, Wistar, rat, in vivo, po, oral raw licorice water decoction, read-out: Cmax): 47.8 ± 2.62 ng/mL"
"O=C(/C=C/c1ccc(O)cc1)c1ccc(O)cc1O [ILG, isoliquiritigenin]",,93.1,95.7,96.4,87.6,94.7,85.3,9.32 ± 0.68,1.12 ± 0.25,1.5,6.13 ± 0.8,0.56 ± 0.12,1.8,6.53 ± 2.34,0.75 ± 0.28,,"Cmax higher than in the raw group [1, 4]: 49.3%; AUC0-24h increased over the raw licorice group ([1]; honey-roasting licorice vs raw licorice group, rat, oral): 42.7%; Tmax ([1]; male, Wistar, rat, plasma, po, oral raw licorice water decoction, read-out: Tmax): 1.5 h"
"CC1(C)[C@@H](O[C@H]2O[C@H](C(=O)O)[C@@H](O)[C@H](O)[C@H]2O[C@@H]2O[C@H](C(=O)O)[C@@H](O)[C@H](O)[C@H]2O)CC[C@]2(C)[C@H]3C(=O)C=C4[C@@H]5C[C@@](C)(C(=O)O)CC[C@]5(C)CC[C@@]4(C)[C@]3(C)CC[C@@H]12 [Glycyrrhizin, glycyrrhizin]",,,,,,,,,,,,,,,,,oral bioavailability [3]: extremely low
"O=C1C[C@@H](c2ccc(O)cc2)Oc2cc(O)ccc21 [LG, liquiritigenin]",,93.9,90.8,87.7,96.5,92.8,,,,,,,,,,2.4,"AUC0-24h [1, 20]: 85.36 ± 14.70 ng·h/mL; Tmax [1, 20]: 2.3 h; AUC0-24h [1, 21]: 47.74 ± 8.03^∗Δ h·ng /mL; Tmax [1, 21]: 2.5 h; AUC0-24h [1, 22]: 84.29 ± 33.71 ng·h/mL"
"O=C1C[C@@H](c2ccc(O[C@@H]3O[C@H](CO)[C@@H](O)[C@H](O)[C@H]3O)cc2)Oc2cc(O)ccc21 [LQ, liquiritin]",319 ± 50,99.5,90.9,88.3,89.5,96.4,95.6,479 ± 65.2,203 ± 54.1,,,87.9 ± 8.08,,520 ± 94.5,,,"Cmax lower than in the raw licorice group ([1]; 50% honey-roasting group vs raw licorice group, rat, oral): 53.96%; Cmax [1, 22]: 191.00 ± 80.23 ng/mL"
"CC1(C)[C@@H](O)CC[C@]2(C)[C@H]3C(=O)C=C4[C@@H]5C[C@@](C)(C(=O)O)CC[C@]5(C)CC[C@@]4(C)[C@]3(C)CC[C@@H]12 [GA, glycyrrhetinic acid]",,100.9,96.4,96.2,,96.2,102.1,7000 ± 1290,651 ± 200,6.8,5180 ± 2540,608 ± 278,6.8,6980 ± 4800,572 ± 311,8.0,

# Source: paper PMC6033295, “The Effects of the Honey-Roasting Process on the Pharmacokinetics of the Six Active Compounds of Licorice” (Evidence-based Complementary and Alternative Medicine : eCAM, 2018)
